Test results taken from US11572402B2, “Method for promoting diversification of antibody variable region” (Chiome Bioscience Inc., priority 2017, dated 2023).

system: hVEGF-A-#33 cell line; experiment: Screening for diversification-promoting compounds by FCM (hIgG+_hVEGF-A− population); format: cell-based, chicken; details: hVEGF-A-#33 cells expressing human IgG, versus negative control CS(−)
Experimental: Frozen stocks of the hVEGF-A #33 cell line and the hVEGF-A #44 cell line (3.0×10^6 cells) were each awaken with a CS(-) medium, using a 25 cm^2 Flask (Corning, 430639), and were then cultured in a CO2 incubator (SANYO CO2 Incubator MCO-20AIC, 39.5° C., 5% CO2). On the following day, the cells were seeded on a 6-well dish (Nunc, 140675) to a cell density of 1.0×10^4 cells/mL (wherein the cell concentration and the survival rate were measured using CASY cell counter (Nepa Gene)). The cells were cultured in a CS(+) medium, in the presence or absence of a PI3Kα inhibitor ([…]: 10 μM, PI3Kα Inhibitor 2: 500 nM). Moreover, after the cells had been cultured for 2 days, individual samples were subcultured under the same conditions to result in a cell density of 1.0×10^4 cells/mL. Further, after completion of the culture for 3 days, individual samples were subcultured under the same conditions to result in a cell density of 6.0×10^4 cells/mL, and the culture was continued. After completion of the culture for 2 days (Day 7 of the culture), individual samples were centrifuged to remove a supernatant, and the residue was then suspended in a CS(+) medium supplemented with 1 μM FK-506 (hereinafter referred to as a “CS/FK medium”). The suspension was centrifuged again to remove a supernatant. This washing step was carried out repeatedly twice, and individual samples were then suspended in a CS/FK medium supplemented with AF647-labeled hVEGF-A (10 nM) and 2,000-fold diluted Goat Anti-Human IgG-PE. The light was shielded, and the obtained suspension was then reacted at 4° C. for 30 min. After completion of the staining, the reaction mixture was washed with a CS/FK medium twice, and each sample was then suspended in the CS/FK medium. Thereafter, using FACS Aria Fusion (BD), FCM and single cell sorting was carried out. Dead cells were removed using FSC-SSC plot. A plot, in which the vertical axis indicated AF647 (AF647-labeled hVEGF-A) and the longitudinal axis indicated PE (Goat Anti-Human IgG-PE), was developed, and the percentage of PE+(hIgG+)/AF647-(hVEGF-A-) cells was then calculated. In order to make a comparison regarding the number of cells with improved antigen-binding ability according to Affinity Maturation under individual conditions, Affinity Maturation Gate was established according to the following criteria. First, the plot was converted to a contour plot in FCM analysis, and a trapezoid gate having an inclination that was in parallel with the contour of a population in which the most cells were gathered (hereinafter referred to as a “main population”) was established. […] At that time, the vertex of the trapezoid gate was set to be overlapped with the mean value MFI of the main population, and then, a cell population having low antigen-binding ability and a cell population having a low expression level of antibody were set not to enter the gate. The percentage of clones with improved antigen-binding ability was calculated by counting the number of cells existing in this Affinity Maturation Gate and then dividing the obtained value by the total number of the analyzed cells. […]

| SMILES | percentage of hIgG+_hVEGF-A− cell population (diversification-promoting effect) |
| --- | --- |
| O=C1NC(=O)/C(=C/c2ccc3nccc(-c4ccncc4)c3c2)S1 [GSK1059615] | increased in comparison to the negative control (CS(−)) |
| COc1ccc2c(c1OC)N=C(NC(=O)c1cccnc1)N1CCN=C21 [PIK-90] | increased in comparison to the negative control (CS(−)) |
| Oc1cccc(-c2nc(N3CCOCC3)c3oc4ncccc4c3n2)c1 [PI-103] | increased in comparison to the negative control (CS(−)) |
| N#Cc1ccc(-c2c(-c3ncn[nH]3)sc(N3CCOCC3)c2C#N)c(F)c1 [PF-4989216] | increased in comparison to the negative control (CS(−)) |
